{"source": "ChEMBL document CHEMBL2163343", "about": "“Sesquiterpene lactones from Tithonia diversifolia act as peroxisome proliferator-activated receptor agonists” (Bioorg Med Chem Lett, 2012)", "key": {"[1]": {"target": "T1, Peroxisome proliferator-activated receptor alpha (Homo sapiens) (UniProt Q07869)", "T1 sequence (whole entry)": "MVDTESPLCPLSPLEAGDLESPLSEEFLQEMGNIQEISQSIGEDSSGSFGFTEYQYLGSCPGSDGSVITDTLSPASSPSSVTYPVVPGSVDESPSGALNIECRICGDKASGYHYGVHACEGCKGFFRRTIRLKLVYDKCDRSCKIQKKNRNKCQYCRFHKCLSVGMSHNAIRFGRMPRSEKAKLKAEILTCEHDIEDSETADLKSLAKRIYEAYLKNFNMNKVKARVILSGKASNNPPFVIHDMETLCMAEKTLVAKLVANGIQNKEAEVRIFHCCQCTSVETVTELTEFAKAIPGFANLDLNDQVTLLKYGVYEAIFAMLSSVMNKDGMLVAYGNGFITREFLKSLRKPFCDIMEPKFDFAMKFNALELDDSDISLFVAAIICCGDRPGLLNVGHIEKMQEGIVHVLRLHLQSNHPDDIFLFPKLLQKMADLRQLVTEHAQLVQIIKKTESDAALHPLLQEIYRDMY", "assay": "Transactivation of PPARalpha expressed in human HepG2 cells assessed as Sult2a1 expression at 10 uM by luciferase reporter gene assay relative to vehicle-treated control", "type": "cell-based"}, "[2]": {"target": "T2, Peroxisome proliferator-activated receptor gamma (Homo sapiens) (UniProt P37231)", "T2 sequence (whole entry)": "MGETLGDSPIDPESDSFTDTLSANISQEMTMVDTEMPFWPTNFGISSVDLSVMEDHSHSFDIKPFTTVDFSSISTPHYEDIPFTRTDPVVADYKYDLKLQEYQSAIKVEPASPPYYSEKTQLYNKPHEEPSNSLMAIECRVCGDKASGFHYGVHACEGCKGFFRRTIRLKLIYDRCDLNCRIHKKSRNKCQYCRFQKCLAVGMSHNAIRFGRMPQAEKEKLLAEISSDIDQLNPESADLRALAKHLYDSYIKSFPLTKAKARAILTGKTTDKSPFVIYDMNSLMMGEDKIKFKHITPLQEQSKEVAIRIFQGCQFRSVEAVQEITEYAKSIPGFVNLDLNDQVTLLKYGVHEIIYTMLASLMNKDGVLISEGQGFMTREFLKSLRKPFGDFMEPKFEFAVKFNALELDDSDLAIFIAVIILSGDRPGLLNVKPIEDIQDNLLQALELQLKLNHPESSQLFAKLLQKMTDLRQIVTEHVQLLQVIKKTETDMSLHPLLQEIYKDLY", "conditions": "HEK293", "description": "Agonist activity at human PPARgamma expressed in human HEK293 cells assessed as ABCA1 promoter transactivation at 100 nM by luciferase reporter gene assay relative to vehicle-treated control"}, "[3]": {"target": "T1, Peroxisome proliferator-activated receptor alpha (Homo sapiens)", "assay": "Transactivation of PPARalpha expressed in human HepG2 cells assessed as Sult2a1 expression at 100 nM by luciferase reporter gene assay relative to vehicle-treated control", "type": "cell-based"}, "[4]": {"target": "T2, Peroxisome proliferator-activated receptor gamma (Homo sapiens)", "assay": "Agonist activity at human PPARgamma expressed in human HEK293 cells assessed as ABCA1 promoter transactivation at 10 uM by luciferase reporter gene assay relative to vehicle-treated control", "type": "functional, cell-based"}, "[5]": {"target": "T2, Peroxisome proliferator-activated receptor gamma (Homo sapiens)", "assay": "Agonist activity at human PPARgamma expressed in human HEK293 cells assessed as SHP promoter transactivation at 10 uM by luciferase reporter gene assay relative to vehicle-treated control", "type": "functional, cell-based"}, "[6]": {"target": "T2, Peroxisome proliferator-activated receptor gamma (Homo sapiens)", "assay": "Agonist activity at human PPARgamma expressed in human HEK293 cells assessed as ABCA1 promoter transactivation by luciferase reporter gene assay relative to vehicle-treated control", "type": "functional, cell-based"}, "[7]": {"target": "T2, Peroxisome proliferator-activated receptor gamma (Homo sapiens)", "assay": "Agonist activity at human PPARgamma expressed in human HEK293 cells assessed as SHP promoter transactivation by luciferase reporter gene assay relative to vehicle-treated control", "type": "functional, cell-based"}, "[8]": {"target": "T2, Peroxisome proliferator-activated receptor gamma (Homo sapiens)", "assay": "Agonist activity at human PPARgamma expressed in human HEK293 cells assessed as ABCA1 promoter transactivation at 1 uM by luciferase reporter gene assay relative to vehicle-treated control", "type": "functional, cell-based"}, "[9]": {"target": "T3, Peroxisome proliferator-activated receptor gamma (Homo sapiens, UniProt P37231)", "T3 sequence (P37231 whole entry)": "T2 sequence (whole entry)", "assay": "Inhibition of fluormone binding to human PPARgamma LBD after 2 hrs by competitive fluorescence polarization assay"}, "[10]": {"target": "T2, Peroxisome proliferator-activated receptor gamma (Homo sapiens)", "assay": "Agonist activity at human PPARgamma expressed in human HEK293 cells at 10 uM by luciferase reporter gene assay relative to vehicle-treated control", "type": "functional, cell-based"}, "[11]": {"target": "T2, Peroxisome proliferator-activated receptor gamma (Homo sapiens)", "assay": "Agonist activity at human PPARgamma expressed in human HEK293 cells assessed as SHP promoter transactivation at 1 uM by luciferase reporter gene assay relative to vehicle-treated control", "type": "functional, cell-based"}}, "data": [{"molecule": "CCOC(=O)C(C)(C)Oc1ccc(Cl)cc1", "values": [{"measurement": "RLU", "setting": "[1]", "result": 2.44}]}, {"molecule": "C=C1C(=O)O[C@@H]2C[C@H](C)[C@@]3(O)CC[C@@](C)(C[C@@H](OC(=O)C(C)C)[C@@H]12)O3", "note": "[TIROTUNDIN]", "values": [{"measurement": "RLU", "setting": "[2]", "result": 1.6}, {"measurement": "RLU", "setting": "[3]", "result": 1.4}, {"measurement": "RLU", "setting": "[4]", "result": 3.1}, {"measurement": "RLU", "setting": "[5]", "result": 3.4}, {"measurement": "Activity", "setting": "[6]", "result": "Dose-dependent effect"}, {"measurement": "Activity", "setting": "[7]", "result": "Dose-dependent effect"}, {"measurement": "RLU", "setting": "[8]", "result": 2.1}, {"measurement": "RLU", "setting": "[1]", "result": 2.33}, {"measurement": "IC50", "setting": "[9]", "result": 27, "unit": "µM"}, {"measurement": "RLU", "setting": "[10]", "result": 2}]}, {"molecule": "C=C1C(=O)O[C@@H]2C[C@H](C)[C@@]3(O)C[C@H](O)[C@@](C)(C[C@@H](OC(=O)C(C)C)[C@@H]12)O3", "note": "[TAGITININ A]", "values": [{"measurement": "RLU", "setting": "[3]", "result": 1.4}, {"measurement": "RLU", "setting": "[11]", "result": 2.8}, {"measurement": "RLU", "setting": "[4]", "result": 2.9}, {"measurement": "RLU", "setting": "[5]", "result": 3.5}, {"measurement": "Activity", "setting": "[6]", "result": "Dose-dependent effect"}, {"measurement": "Activity", "setting": "[7]", "result": "Dose-dependent effect"}, {"measurement": "RLU", "setting": "[8]", "result": 2.1}, {"measurement": "RLU", "setting": "[1]", "result": 2.47}, {"measurement": "IC50", "setting": "[9]", "result": 55, "unit": "µM"}, {"measurement": "RLU", "setting": "[10]", "result": 1.5}]}]}
